Measurements as given in ChEMBL document CHEMBL4382286, “Nongenotoxic 3-Nitroimidazo[1,2-a]pyridines Are NTR1 Substrates That Display Potent in Vitro Antileishmanial Activity” (ACS Med Chem Lett, 2019).
pIC50: −log10 of the molar value.

Legend:
Trypanosoma cruzi = assay: Antitrypanosomal activity against Trypanosoma cruzi MHOM/BR/78/Silvio cloneX10/7A epimastigotes measured after 4 days by resazurin dye based fluorescence assay; assay type: functional, organism-based; settings: 96 h
[1] = Solubility of the compound in RPMI medium at 4 to 6 uM; assay type: physicochemical
Leishmania donovani [2] = assay: Antileishmanial activity against promastigote stage of Leishmania donovani MHOM/IN/00/DEVI after 72 hrs by MTT assay; assay type: functional, organism-based
[3] = Cytotoxicity against human HepG2 cells after 72 hrs by MTT assay; assay type: cell-based
[4] = Selectivity index, ratio of CC50 for human HepG2 cells to IC50 for promastigote stage of Leishmania donovani MHOM/IN/00/DEVI; assay type: toxicity; settings: read-out: Ratio CC50/IC50
Plasmodium falciparum = assay: Antiplasmodial activity against chloroquine/proguanil/pyrimethamine-resistant synchronized stage of Plasmodium falciparum K1 after 72 hrs by SYBR green1 staining based spectrophotometric method; assay type: functional, organism-based; settings: K1, 72 h
Leishmania donovani [5] = assay: Antileishmanial activity against intracellular amastigote stage of Leishmania donovani infected in human THP1 cells after 120 hrs by giemsa staining based microscopic analysis; assay type: functional, organism-based; settings: THP-1, 120 h
[6] = Cytotoxicity against human THP1 cells after 72 hrs by MTT assay; assay type: cell-based; settings: THP-1 cells
Trichomonas vaginalis = assay: Antiprotozoal activity against Trichomonas vaginalis TVR87 measured after 48 hrs by trypan blue assay; assay type: functional, organism-based
Leishmania major [7] = assay: Antileishmanial activity against promastigote stage of Leishmania major MHOM/IL/81/Friedlin after 72 hrs by MTT assay; assay type: functional, organism-based
Leishmania major [8] = assay: Antileishmanial activity against intracellular amastigote stage of Leishmania major infected in human THP1 cells after 120 hrs by giemsa staining based microscopic analysis; assay type: functional, organism-based; settings: THP-1, 120 h
Leishmania infantum = assay: Antileishmanial activity against Leishmania infantum axenic amastigotes after 48 hrs by steady-glo luciferase reporter gene assay; assay type: functional, organism-based
[9] = system: Trypanosoma brucei brucei; assay: Antitrypanosomal activity against trypomastigote stage of Trypanosoma brucei brucei AnTat 1.9 assessed as decrease in parasite viability after 69 hrs by Alamar Blue assay; assay type: functional, organism-based; settings: AnTat 1.9, 69 h
[10] = Solubility of the compound in RPMI medium at >62.5 uM; assay type: physicochemical

Compound	solubility [1]	pIC50 (Leishmania donovani [2])	CC50 at 72 h [3]	selectivity ratio [4]	other results
CC1CS(=O)(=O)CCN1/N=C/c1ccc([N+](=O)[O-])o1 (stereo not drawn) [NIFURTIMOX]	–	–	–	–	pIC50 (Trypanosoma cruzi): 6.52
COc1ccc(CSc2cc(Cl)cn3c([N+](=O)[O-])c(CS(=O)(=O)c4ccccc4)nc23)cc1	Insoluble	–	–	–	–
O=C(O)Cc1ccc(Sc2cc(Cl)cn3c([N+](=O)[O-])c(CS(=O)(=O)c4ccccc4)nc23)cc1	Soluble	4.18	> 62.5 µM	> 1	–
COc1cccc(Sc2cc(Cl)cn3c([N+](=O)[O-])c(CS(=O)(=O)c4ccccc4)nc23)c1	Insoluble	5.64	> 15.6 µM	> 6.8	–
O=[N+]([O-])c1c(CS(=O)(=O)c2ccccc2)nc2c(Sc3cccc(Cl)c3)cc(Cl)cn12	–	6.15	> 3.9 µM	> 3.6	–
O=[N+]([O-])c1c(CS(=O)(=O)c2ccccc2)nc2c(Sc3ccccc3F)cc(Cl)cn12	–	5.92	> 5 µM	> 4.2	–
O=[N+]([O-])c1c(CS(=O)(=O)c2ccccc2)nc2c(Sc3cccc(F)c3)cc(Cl)cn12	–	5.92	> 3.9 µM	> 2.1	–
O=[N+]([O-])c1c(CS(=O)(=O)c2ccccc2)nc2c(SCc3ccccc3)cc(Cl)cn12	Insoluble	–	–	–	–
O=C(Cn1ccnc1[N+](=O)[O-])NCc1ccccc1 [BENZNIDAZOLE]	–	–	–	–	pIC50 (Trypanosoma cruzi): 5.92
O=[N+]([O-])c1c(CS(=O)(=O)c2ccccc2)nc2c(Sc3ccccc3Cl)cc(Cl)cn12	–	5.85	> 5 µM	> 3.6	–
O=[N+]([O-])c1c(CS(=O)(=O)c2ccccc2)nc2c(Sc3ccccc3)cc(Cl)cn12	–	5.77	> 3.9 µM	> 2.3	–
O=[N+]([O-])c1c(CS(=O)(=O)c2ccccc2)nc2c(Sc3cc(Cl)ccc3Cl)cc(Cl)cn12	–	5.89	> 3.9 µM	> 1.5	–
O=[N+]([O-])c1c(CS(=O)(=O)c2ccccc2)nc2c(SCc3ccc(Br)cc3)cc(Cl)cn12	Insoluble	–	–	–	–
O=C1C(O)=C([C@H]2CC[C@H](c3ccc(Cl)cc3)CC2)C(=O)c2ccccc21 [ATOVAQUONE]	–	–	–	–	pIC50 (Plasmodium falciparum): 9.00
O=[N+]([O-])c1c(CS(=O)(=O)c2ccccc2)nc2c(Sc3ccc(Cl)cc3Cl)cc(Cl)cn12	–	5.77	> 3.9 µM	> 2.2	–
Cc1cccc(Sc2cc(Cl)cn3c([N+](=O)[O-])c(CS(=O)(=O)c4ccccc4)nc23)c1	–	5.85	> 5.6 µM	> 4	–

Compound	solubility [1]	pIC50 (Leishmania donovani [2])	CC50 at 72 h [3]	selectivity ratio [4]	other results
O=[N+]([O-])c1c(CS(=O)(=O)c2ccccc2)nc2c(Sc3ccc(C(F)(F)F)cc3)cc(Cl)cn12	–	5.68	> 3.9 µM	> 1.5	–
COc1ccc(Sc2cc(Cl)cn3c([N+](=O)[O-])c(CS(=O)(=O)c4ccccc4)nc23)cc1	Soluble	5.82	> 62.5 µM	> 41.7	–
CC(C)c1ccc(Sc2cc(Cl)cn3c([N+](=O)[O-])c(CS(=O)(=O)c4ccccc4)nc23)cc1	Insoluble	5.80	> 25 µM	> 15.6	–
CSc1ccc(OCc2ncc([N+](=O)[O-])n2C)cc1 [FEXINIDAZOLE]	–	–	> 200 µM	–	pIC50 (Leishmania donovani [5]): < 4.30; pIC50 (Trypanosoma cruzi): 5.05; CC50 at 72 h [6]: > 62.5 µM
O=[N+]([O-])c1c(CS(=O)(=O)c2ccccc2)nc2c(Sc3ccccc3C(F)(F)F)cc(Cl)cn12	–	5.82	> 4.1 µM	> 2.7	–
Cc1ncc([N+](=O)[O-])n1CCO [METRONIDAZOLE]	–	–	–	–	pIC50 (Trichomonas vaginalis): 5.38
N=C(N)c1ccc(OCCCCCOc2ccc(C(=N)N)cc2)cc1 [PENTAMIDINE]	–	–	–	0.4	–
COc1ccccc1Sc1cc(Cl)cn2c([N+](=O)[O-])c(CS(=O)(=O)c3ccccc3)nc12	–	5.64	> 50 µM	> 21.7	–
O=[N+]([O-])c1c(CS(=O)(=O)c2ccccc2)nc2c(Sc3ccc(F)cc3)cc(Cl)cn12	–	5.89	> 5 µM	> 3.8	–
Cc1ccc(Sc2cc(Cl)cn3c([N+](=O)[O-])c(CS(=O)(=O)c4ccccc4)nc23)cc1	–	5.85	> 3.9 µM	> 2.2	–
O=[N+]([O-])c1c(CS(=O)(=O)c2ccccc2)nc2c(Sc3cccc(Cl)c3Cl)cc(Cl)cn12	Insoluble	5.70	> 25 µM	> 12.5	–
O=[N+]([O-])c1c(CS(=O)(=O)c2ccccc2)nc2c(Sc3cccc(C(F)(F)F)c3)cc(Cl)cn12	–	5.89	> 3.9 µM	> 2.4	–
Cc1ccccc1Sc1cc(Cl)cn2c([N+](=O)[O-])c(CS(=O)(=O)c3ccccc3)nc12	–	5.77	> 3.9 µM	> 1.5	–
C[C@@H]1[C@H](O)[C@@H](C)/C=C/C=C/C=C/C=C/C=C/C=C/C=C/[C@H](O[C@@H]2O[C@H](C)[C@@H](O)[C@H](N)[C@@H]2O)C[C@@H]2O[C@](O)(C[C@@H](O)C[C@@H](O)[C@H](O)CC[C@@H](O)C[C@@H](O)CC(=O)O[C@H]1C)C[C@H](O)[C@H]2C(=O)O [AMPHOTERICIN B]	–	–	–	–	pIC50 (Leishmania major [7]): 6.22; pIC50 (Leishmania major [8]): 6.70
O=[N+]([O-])c1c(CS(=O)(=O)c2ccccc2)nc2c(SCc3ccc(Cl)cc3)cc(Cl)cn12	Insoluble	–	–	–	–
O=[N+]([O-])c1c(CS(=O)(=O)c2ccccc2)nc2c(Sc3ccc(Br)cc3)cc(Cl)cn12	Soluble	6.00	> 62.5 µM	> 62.5	pIC50 (Leishmania donovani [5]): 5.46; pIC50 (Leishmania infantum): 5.05; pIC50 (Leishmania major [7]): 5.89; pIC50 (Leishmania major [8]): 5.30; pIC50 (Trichomonas vaginalis): 5.30 to 5.34; pIC50 [9]: 5.42; pIC50 (Trypanosoma cruzi): 5.21; CC50 at 72 h [6]: > 62.5 µM; solubility [10]: Insoluble
